Assay results published in US8178571B2, “Unsubstituted and substituted 4-benzyl-1,3-dihydro-imidazole-2-thiones acting as specific or selective alpha2 adrenergic agonists and methods for using the same” (Allergan, Inc., priority 2004, dated 2012).

Legend:
Type in all cases: cell-based
[1] = molecular target: T1, alpha2B adrenergic receptor (Homo sapiens, UniProt P18089); test: Receptor Selection and Amplification Technology (RSAT) assay, alpha2B; conditions: for Intrinsic Activity Alpha 2B: RSAT, NIH-3T3 cells, ratio of maximal effect to that of standard full agonist brimonidine (UK14304), NA = not active at concentrations less than 10 micromolar; for Specificity or selectivity for alpha2B (and/or alpha2C) over alpha2A adrenergic receptors: statement in words, RSAT assay
T1 construct: expressed in transfected cells; host or cells: NIH-3T3 cells
T1 sequence (P18089 1-450): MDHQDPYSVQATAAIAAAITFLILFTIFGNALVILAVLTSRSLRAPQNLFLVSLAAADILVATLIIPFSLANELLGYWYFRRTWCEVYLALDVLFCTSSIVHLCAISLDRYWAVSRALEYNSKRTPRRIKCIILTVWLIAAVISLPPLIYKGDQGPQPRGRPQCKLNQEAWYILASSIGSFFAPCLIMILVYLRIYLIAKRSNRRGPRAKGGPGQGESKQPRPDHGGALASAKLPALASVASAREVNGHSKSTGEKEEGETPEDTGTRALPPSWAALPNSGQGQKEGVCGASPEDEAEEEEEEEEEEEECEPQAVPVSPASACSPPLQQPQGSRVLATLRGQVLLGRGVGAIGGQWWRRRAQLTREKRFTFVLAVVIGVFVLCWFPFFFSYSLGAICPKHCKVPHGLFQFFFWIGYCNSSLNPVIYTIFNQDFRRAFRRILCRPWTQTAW
Text: (§1) The imidazole-2-thione compounds of Formula 1 and the novel compounds 1 through 5 are used in accordance with the present invention as agonists of alpha2 adrenergic receptors. Some compounds of Formula 1 may act as specific or selective agonists of alpha2B and/or to alpha2C adrenergic receptors, in preference over alpha2A adrenergic receptors. […] The specific or selective activity of the compounds of Formula 1 in general and of the novel compounds of the invention can be tested in an assay titled Receptor Selection and Amplification technology (RSAT) assay, which is described in the publication by Messier et. Al., 1995, Pharmacol. Toxicol. 76, pp. 308-311 (incorporated herein by reference) and is also described below. Another reference pertinent to this assay is Conklin et al. (1993) Nature 363:274-6, Receptor Selection and Amplification Technology (RSAT) assay, also incorporated herein by reference.
The RSAT assay measures a receptor-mediated loss of contact inhibition that results in selective proliferation of receptor-containing cells in a mixed population of confluent cells. The increase in cell number is assessed with an appropriate transfected marker gene such as beta-galactosidase, the activity of which can be easily measured in a 96-well format. Receptors that activate the G protein, Gq, elicit this response. Alpha2 receptors, which normally couple to Gi, activate the RSAT response when coexpressed with a hybrid Gq protein that has a Gi receptor recognition domain, called Gq/i5.
NIH-3T3 cells are plated at a density of 2×10^6 cells in 15 cm dishes and maintained in Dulbecco's modified Eagle's medium supplemented with 10% calf serum. One day later, cells are cotransfected by calcium phosphate precipitation with mammalian expression plasmids encoding p-SV-beta-galactosidase (5-10 μg), receptor (1-2 μg) and G protein (1-2 μg). 40 μg salmon sperm DNA may also be included in the transfection mixture. Fresh media is added on the following day and 1-2 days later, cells are harvested and frozen in 50 assay aliquots. Cells are thawed and 100 μl added to 100 μl aliquots of various concentrations of drugs in triplicate in 96-well dishes. Incubations continue 72-96 hr at 37° C. After washing with phosphate-buffered saline, beta-galactosidase enzyme activity is determined by adding 200 μl of the chromogenic substrate (consisting of 3.5 mM o-nitrophenyl-beta-D-galactopyranoside and 0.5% nonidet P-40 in phosphate buffered saline), incubating overnight at 30° C. and measuring optical density at 420 nm. The absorbance is a measure of enzyme activity, which depends on cell number and reflects a receptor-mediated cell proliferation. The efficacy or intrinsic activity is calculated as a ratio of the maximal effect of the drug to the maximal effect of a standard full agonist for each receptor subtype. Brimonidine, also called UK14304, the chemical structure of which is shown below, is used as the standard agonist for the alpha2A, alpha2B and alpha2C receptors.

[2] = molecular target: T2, alpha2A adrenergic receptor (Homo sapiens, UniProt P08913); test: Receptor Selection and Amplification Technology (RSAT) assay, alpha2A; conditions: NIH-3T3 cells, ratio of maximal effect to that of standard full agonist brimonidine (UK14304), NA = not active at concentrations less than 10 micromolar
T2 construct: expressed in transfected cells; host or cells: NIH-3T3 cells
T2 sequence (P08913 1-465): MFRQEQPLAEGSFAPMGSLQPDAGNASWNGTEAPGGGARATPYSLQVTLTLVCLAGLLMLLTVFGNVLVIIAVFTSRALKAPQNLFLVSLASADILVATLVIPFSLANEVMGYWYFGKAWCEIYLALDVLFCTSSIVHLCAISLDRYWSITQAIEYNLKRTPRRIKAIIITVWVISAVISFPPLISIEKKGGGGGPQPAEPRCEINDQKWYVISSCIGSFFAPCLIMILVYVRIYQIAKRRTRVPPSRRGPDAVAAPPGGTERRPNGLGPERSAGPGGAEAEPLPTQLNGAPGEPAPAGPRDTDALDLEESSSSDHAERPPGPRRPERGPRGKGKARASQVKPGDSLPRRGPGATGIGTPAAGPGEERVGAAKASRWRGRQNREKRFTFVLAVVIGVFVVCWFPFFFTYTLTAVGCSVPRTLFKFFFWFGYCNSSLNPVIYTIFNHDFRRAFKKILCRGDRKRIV
Text: as §1, with “Another reference pertinent to this assay is Conklin et al. (1993) Nature 363:274-6, Receptor Selection and Amplification Technology (RSAT) assay, also incorporated herein by reference.” left out
(§2) The RSAT assay measures a receptor-mediated loss of contact inhibition that results in selective proliferation of receptor-containing cells in a mixed population of confluent cells. The increase in cell number is assessed with an appropriate transfected marker gene such as beta-galactosidase, the activity of which can be easily measured in a 96-well format. […]
(§3) NIH-3T3 cells are plated at a density of 2×10^6 cells in 15 cm dishes and maintained in Dulbecco's modified Eagle's medium supplemented with 10% calf serum. […] The absorbance is a measure of enzyme activity, which depends on cell number and reflects a receptor-mediated cell proliferation. […]

[3] = molecular target: T3, alpha2C adrenergic receptor (Homo sapiens, UniProt P18825); test: Receptor Selection and Amplification Technology (RSAT) assay, alpha2C; conditions: NIH-3T3 cells, ratio of maximal effect to that of standard full agonist brimonidine (UK14304), NA = not active at concentrations less than 10 micromolar
T3 construct: expressed in transfected cells; host or cells: NIH-3T3 cells
T3 sequence (P18825 1-462): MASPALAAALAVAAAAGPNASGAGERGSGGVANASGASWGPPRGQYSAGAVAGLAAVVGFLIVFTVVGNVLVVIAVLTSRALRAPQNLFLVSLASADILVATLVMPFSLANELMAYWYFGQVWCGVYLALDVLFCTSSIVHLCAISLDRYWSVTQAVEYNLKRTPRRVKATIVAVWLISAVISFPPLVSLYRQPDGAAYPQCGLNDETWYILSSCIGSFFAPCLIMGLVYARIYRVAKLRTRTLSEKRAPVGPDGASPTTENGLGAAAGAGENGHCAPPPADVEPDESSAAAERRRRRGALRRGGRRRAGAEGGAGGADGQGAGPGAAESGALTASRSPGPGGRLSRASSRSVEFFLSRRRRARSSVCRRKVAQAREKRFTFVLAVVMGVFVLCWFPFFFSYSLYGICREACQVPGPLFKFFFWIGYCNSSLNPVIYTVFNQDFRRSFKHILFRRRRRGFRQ
Text: as §1, with “Another reference pertinent to this assay is Conklin et al. (1993) Nature 363:274-6, Receptor Selection and Amplification Technology (RSAT) assay, also incorporated herein by reference.” left out
as §2, §3

| Compound | Intrinsic Activity Alpha 2B [1] | Specificity or selectivity for alpha2B (and/or alpha2C) over alpha2A adrenergic receptors [1] | Intrinsic Activity Alpha 2A [2] | Intrinsic Activity Alpha 2C [3] |
| --- | --- | --- | --- | --- |
| Fc1ccccc1Cc1c[nH]c(=S)[nH]1 [Compound 3, 4-(2-fluoro-benzyl)-1,3-dihydro-imidazole-2-thione] | 1.3 | specific agonists of alpha2B agonists in preference over alpha2A and alpha2C adrenergic receptors |  |  |
| S=c1[nH]cc(Cc2c(Cl)cccc2Cl)[nH]1 [Compound 1, 4-(2,6-dichloro-benzyl)-1,3-dihydro-imidazole-2-thione] | 1.11 |  | 0.74 | 1.18 |
| N#Cc1ccc(-c2ccccc2Cc2c[nH]c(=S)[nH]2)cc1 [Compound 6, 2′-(2-Thioxo-2,3-dihydro-1H-imidazol-4-ylmethyl)-biphenyl-4-carbonitrile] | 0.70 |  |  | 0.71 |
| S=c1[nH]cc(Cc2ccc(Cl)cc2Cl)[nH]1 [Compound 5, 4-(2,4-dichloro-benzyl)-1,3-dihydro-imidazole-2-thione] | 0.95 | specific agonists of alpha2B agonists in preference over alpha2A and alpha2C adrenergic receptors |  |  |
| Fc1ccc(Cc2c[nH]c(=S)[nH]2)cc1 [Compound 4, 4-(4-fluoro-benzyl)-1,3-dihydro-imidazole-2-thione] | 0.92 | specific agonists of alpha2B agonists in preference over alpha2A and alpha2C adrenergic receptors |  |  |
| Fc1c(Cl)cccc1Cc1c[nH]c(=S)[nH]1 [Compound 2, 4-(3-chloro-2-fluoro-benzyl)-1,3-dihydro-imidazole-2-thione] | 1.05 |  | 0.78 |  |
